Source: PMC4623880 (Digestive diseases and sciences, 2015)
Entries after “also recorded” stand apart in the source; their conditions may differ. Where two headings read alike, the source gives them in different places.

Legend:
[1] = cited from earlier work
[2] = assay type: in vivo, human; details: for Cmax: N-desmethyl sildenafil, after 2.5 mg IV bolus sildenafil; for observed maximum concentration of plasma sildenafil: 2.5 mg IV bolus
[3] = healthy volunteers; cited from earlier work
[4] = Tolerability and hemodynamics; assay type: in vivo, human; details: for tolerability / safety of IV sildenafil: both subjects, single 2.5 mg IV bolus injection
[5] = subject 1, 16 min after 2.5 mg IV bolus sildenafil
[6] = subject 1, 30 min after 2.5 mg IV bolus sildenafil
[7] = subject 1, 60 min after 2.5 mg IV bolus sildenafil
[8] = subject 1, 120 min after 2.5 mg IV bolus sildenafil
[9] = subject 1, 178 min after 2.5 mg IV bolus sildenafil
[10] = subject 1, 242 min after 2.5 mg IV bolus sildenafil
[11] = subject 1, 360 min after 2.5 mg IV bolus sildenafil
[12] = subject 1, 480 min after 2.5 mg IV bolus sildenafil
[13] = subject 2, 15 min after 2.5 mg IV bolus sildenafil
[14] = subject 2, 30 min after 2.5 mg IV bolus sildenafil
[15] = subject 2, 60 min after 2.5 mg IV bolus sildenafil
[16] = subject 2, 122 min after 2.5 mg IV bolus sildenafil
[17] = subject 2, 180 min after 2.5 mg IV bolus sildenafil
[18] = subject 2, 240 min after 2.5 mg IV bolus sildenafil
[19] = subject 2, 360 min after 2.5 mg IV bolus sildenafil
[20] = subject 2, 480 min after 2.5 mg IV bolus sildenafil

SMILES: CCCc1nn(C)c2c(=O)[nH]c(-c3cc(S(=O)(=O)N4CCNCC4)ccc3OCC)nc12 [N-desmethyl Sildenafil, N-desmethyl sildenafil]
- N-desmethyl sildenafil AUC increased compared to healthy subjects ([1]; CTP class A and B cirrhosis): 154%
- mean Cmax of N-desmethyl sildenafil increased compared to normal controls ([1]; CTP class A and B cirrhosis): 87%
- N-desmethyl sildenafil AUC/sildenafil AUC ([1]; healthy subjects): 52%
- N-desmethyl sildenafil AUC/sildenafil AUC ([1]; subjects with CTP Class A and B cirrhosis): 71%
- Cmax ([2]; subject 1): 2.6 ng/mL
- Cmax ([2]; subject 2): 1.1 ng/mL
- N-desmethyl Sildenafil Concentration ([2]; plasma, subject 1, 16 min after 2.5 mg IV bolus sildenafil): 1.21 ng/mL
- N-desmethyl Sildenafil Concentration ([2]; plasma, subject 1, 30 min after 2.5 mg IV bolus sildenafil): BLQ
- N-desmethyl Sildenafil Concentration ([2]; plasma, subject 1, 60 min after 2.5 mg IV bolus sildenafil): 2.26 ng/mL
- N-desmethyl Sildenafil Concentration ([2]; plasma, subject 1, 88 min after 2.5 mg IV bolus sildenafil): 2.10 ng/mL
- N-desmethyl Sildenafil Concentration ([2]; plasma, subject 1, 120 min after 2.5 mg IV bolus sildenafil): 2.49 ng/mL
- N-desmethyl Sildenafil Concentration ([2]; plasma, subject 1, 178 min after 2.5 mg IV bolus sildenafil): 2.64 ng/mL
- N-desmethyl Sildenafil Concentration ([2]; plasma, subject 1, 242 min after 2.5 mg IV bolus sildenafil): 2.19 ng/mL
- N-desmethyl Sildenafil Concentration ([2]; plasma, subject 1, 360 min after 2.5 mg IV bolus sildenafil): 2.00 ng/mL
- N-desmethyl Sildenafil Concentration ([2]; plasma, subject 1, 480 min after 2.5 mg IV bolus sildenafil): 1.53 ng/mL
- N-desmethyl Sildenafil Concentration ([2]; plasma, subject 2, 15 min after 2.5 mg IV bolus sildenafil): BLQ
- N-desmethyl Sildenafil Concentration ([2]; plasma, subject 2, 30 min after 2.5 mg IV bolus sildenafil): BLQ
- N-desmethyl Sildenafil Concentration ([2]; plasma, subject 2, 60 min after 2.5 mg IV bolus sildenafil): BLQ
- N-desmethyl Sildenafil Concentration ([2]; plasma, subject 2, 90 min after 2.5 mg IV bolus sildenafil): BLQ
- N-desmethyl Sildenafil Concentration ([2]; plasma, subject 2, 122 min after 2.5 mg IV bolus sildenafil): BLQ
- N-desmethyl Sildenafil Concentration ([2]; plasma, subject 2, 180 min after 2.5 mg IV bolus sildenafil): 1.06 ng/mL
- N-desmethyl Sildenafil Concentration ([2]; plasma, subject 2, 240 min after 2.5 mg IV bolus sildenafil): BLQ
- N-desmethyl Sildenafil Concentration ([2]; plasma, subject 2, 360 min after 2.5 mg IV bolus sildenafil): BLQ
- N-desmethyl Sildenafil Concentration ([2]; plasma, subject 2, 480 min after 2.5 mg IV bolus sildenafil): BLQ
- metabolite concentrations ([2]; plasma, subject 2, all times except 180 minutes after sildenafil injection): unmeasurable

SMILES: CCCc1nn(C)c2c(=O)[nH]c(-c3cc(S(=O)(=O)N4CCN(C)CC4)ccc3OCC)nc12 [Sildenafil, sildenafil]
- mean clearance of sildenafil reduced compared to normal controls ([1]; CTP class A and B cirrhosis, single 50 mg oral dose): 46%
- dose-corrected mean Cmax [3]: 26.6 ng/mL
- mean half-life [3]: 3.9 h
- tolerability / safety of IV sildenafil [4]: without side effects
- tolerability / safety of IV sildenafil ([4]; listed as sildenafil): without adverse events; also recorded: safe and tolerable; also recorded: can be safely administered
- adverse events reported at interview ([4]; forty-eight hours after sildenafil injection): did not report any adverse events
- Heart Rate [4, 5]: 53
- Mean Arterial Pressure [4, 5]: 75 mmHg
- Heart Rate [4, 6]: 53
- Mean Arterial Pressure [4, 6]: 78 mmHg
- Heart Rate [4, 7]: 55
- Mean Arterial Pressure [4, 7]: 78 mmHg
- Heart Rate [4, 8]: 51
- Mean Arterial Pressure [4, 8]: 75 mmHg
- Heart Rate [4, 9]: 50
- Mean Arterial Pressure [4, 9]: 79 mmHg
- Heart Rate [4, 10]: 50
- Mean Arterial Pressure [4, 10]: 78 mmHg
- Heart Rate [4, 11]: 53
- Mean Arterial Pressure [4, 11]: 83 mmHg
- Heart Rate [4, 12]: 54
- Mean Arterial Pressure [4, 12]: 83 mmHg
- lowest MAP observed ([4]; subject 1, at 16 and 120 minutes after sildenafil injection): 75
- Heart Rate [4, 13]: 98
- Mean Arterial Pressure [4, 13]: 69 mmHg
- Heart Rate [4, 14]: 98
- Mean Arterial Pressure [4, 14]: 73 mmHg
- Heart Rate [4, 15]: 98
- Mean Arterial Pressure [4, 15]: 75 mmHg
- Heart Rate [4, 16]: 90
- Mean Arterial Pressure [4, 16]: 81 mmHg
- Heart Rate [4, 17]: 97
- Mean Arterial Pressure [4, 17]: 80 mmHg
- Heart Rate [4, 18]: 93
- Mean Arterial Pressure [4, 18]: 75 mmHg
- Heart Rate [4, 19]: 92
- Mean Arterial Pressure [4, 19]: 72 mmHg
- Heart Rate [4, 20]: 94
- Mean Arterial Pressure [4, 20]: 75 mmHg
- lowest MAP ([4]; subject 2, at 15 minutes after sildenafil injection): 69 mmHg
- adverse events ([4]; up to 9 hours after sildenafil injection): No adverse events
- clearance lower than mean in healthy volunteers ([2]; second value, for CL 14.9 L/hr vs 40.8 L/hr): 71%
- observed maximum concentration of plasma sildenafil ([2]; subject 1 (first value)): 35 ng/mL
- observed maximum concentration of plasma sildenafil ([2]; subject 2 (second value)): 20.6 ng/mL
